The text below walks through data of patent US8846914B2, “Compositions to effect neuronal growth” (Neuralstem, Inc., priority 2003, dated 2014).

The test system of assay [1] is Differentiating human hippocampal stem cells. Briefly: Neurogenesis dose-response profile. It is filed as cell-based. The conditions noted are these: for activity at 0.3 µM: @300 nM; for activity at 30 µM: @30000 nM; for activity at 10 µM: @10000 nM; for activity at 1 µM: @1000 nM; for activity at 3 µM: @3000 nM; for activity at 0.001 µM: @1 nM. The procedure:
FIG. 4 is a line graph illustrating an example of a neurogenesis dose-response profile of selected compounds. Differentiating human hippocampal stem cells were treated for seven days with varying concentrations of “primary hits”. Subsequently, the cells were fixed, stained with anti-beta tubulin antibody, and positive cells were quantified by Array Scan II. Shown are the number of neurons after each treatment normalized against the no-compound control.
In another in vitro assay, compounds are tested as above at varying concentrations to obtain a dose-response curve and EC50 values (effective concentration of the compound which produces 50% of the maximum possible response for that compound).
Primary dose-response profiles and secondary functional assays are used to further eliminate compounds from the primary screen based on a lack of dose-dependent effect on neurogenesis, indicated by lack of linearity of dose-response, and in vitro neurotoxicity. The dose-response curve measures neurogenesis over a concentration range of 100 pM to 100 μM. […] Table II contains the summary of EC50 of each compound tested.

The test system of assay [2] is human hippocampal stem cells. In words: Cell proliferation, Alamar Blue staining of live cells. It is filed as cell-based. Conditions: seven days of compound treatment; relative to vehicle control. The protocol:
FIG. 1 is a bar graph illustrating an example of a proliferation profile of compounds selected from primary screening. Proliferation is measured after compound treatment for seven days by Alamar Blue staining of live cells per well. Shown are relative values over the vehicle control.
Neural stem cells and progenitor cells differentiate spontaneously in the absence of a mitogen; therefore, undifferentiated mitotic cells are harvested by enzyme treatment to remove residual mitogen, such as basic fibroblast growth factor (bFGF) used in expansion and proliferation of the cells. In one embodiment of the present invention, undifferentiated human hippocampal stem cells (e.g., HH580)/progenitor cells are harvested by enzyme treatment.
The collected cells are seeded for attachment of the cells such as standard 96-well or 384-well plates, pre-coated with extracellular matrix proteins, such as poly-D-lysine and fibronectin (e.g., Biocoat PDL, Fisher). The initial seeding density can be within the range of about 2,000-125,000 cells per well of a 96-well plate. The preferred density, however, is 40,000 cells per well of a 96-well plate which has been optimized for best signal-to-noise ratio as described in pending U.S. patent application Ser. No. 10/728,652. Cell density that is too low retards the initiation of differentiation and results in poor plating efficiency which interferes with the assay. Cell density that is too high leads to inhibition of neurogenesis due to cell-to-cell interaction and paracrine factors which also interfere with the assay. […] For example, for a 384-well plate which has approximately one-fourth of the surface area of a 96-well plate, the initial seeding density should be decreased by one-fourth accordingly.
The cells are passaged and grown for seven days in 15 cm plates in full growth medium according to Neuralstem protocol with 50% of the media changed every other day. Following centrifugation, the call pellet is re-suspended in N2b medium and enough N2b medium is added to the cell suspension to achieve a concentration of […]. The N2b seeding media includes a standard serum-free, growth factor-free, basal media without phenol red that supports healthy neuronal/glial survival. Fibronectin and PBS is completely removed by aspiration from wells of fibronectin-coated 96-well plate(s). 100 μl of N2b medium with or without 2× concentration of screening agents or compounds to be tested are added to each well. Subsequently, 100 μl of the cell suspension is added to each well at a density of 40,000 cells per well. The cell suspension is incubated for two days at 37° C. in the presence of 5% CO2.
On Days 2, 4, and 6 of post-plating, incremental additions of the compounds are made to each well at appropriate concentrations. Therefore, after two days, 100 μl of N2b medium is removed from the wells, and 100 μl of the N2b medium is added. Likewise, on days four and six, 100 μl of N2b medium is removed from the wells and 100 μl of the N2b medium is added, and the cell suspension is again incubated at 37° C. in the presence of 5% CO2.
On day seven, the final day of the culture, a fluorescent dye such as Alamar Blue dye is added to each well. Alamar Blue dye detects metabolic respiration and is a reflection of total cellular activity indicating changes in cell number of neurons. In this regard, 20 μl of Alamar Blue (Biosource International DAL 1025) is added to each well and incubated for two hours at 37° C. in the presence of 5% CO2.
As a preliminary detection of positive activities, the overall immunostaining intensity in each well is read by a fluorescence plate reader. For instance, the fluorescence of the oxidized dye in each well is read by a fluorescent plate reader such as the Molecular Devices Fluorometric Plate Reader. The reader is set on the Read Mode End Point setting at an excitation of 530 nm, an emission of 590 nm, and a cutoff 570 nm. […]
(Alamar Blue is a resazurin reagent that responds to reducing activity.)

The mark [3] stands for this setting: Homo sapiens, Neuron, 168 h, normalized against no-compound control, read-out: Neuron# Eff.
[4] abbreviates: Homo sapiens, Neuron, 168 h, seven days, 100 pM to 100 μM.
[5] abbreviates: Homo sapiens, Neuron, 168 h, read-out: % Neuron Ratio Eff.

Where two headings read alike, the source gives them in different places.

Take `CCCCNc1c(C2CCN(C(=O)CN(CC(C)C)S(C)(=O)=O)CC2)nc2cnccn12` [NSI-106]: the activity at 0.1 µM in assay [1] (Homo sapiens, Neuron, 168 h, @100 nM, read-out: % Neuron Ratio Eff) stood at 165%. Moreover, in assay [1] (setting [3]), the activity at 0.3 µM turned out to be 157%. Also, the 50% effective concentration (EC50) in assay [1] (setting [4]) is 0.07 nM. In addition, the “% Prolif (Alamar)” value in assay [2] stood at 211 ± 48%.
With `CS(=O)(=O)N1CCCCC1C(=O)NCc1ccc(Nc2c(C3CC3)nc3ccccn23)cc1` (centres unmarked) [NSI-127], the activity at 0.01 µM in assay [1] (Homo sapiens, Neuron, 168 h, @10 nM, read-out: % Neuron Ratio Eff) was 114%. The activity at 30 µM in assay [1] (setting [3]) was found to be 137%. The same compound returned an EC50 in assay [1] (setting [4]) of 1.5 nM. The “% Prolif (Alamar)” value in assay [2] was found to be 181 ± 14%.
Consider `COc1ccc(CCNc2ncc(C(N)=O)c(NC3CC3)n2)cc1OC` [NSI-130], for which, in assay [1] (setting [3]), the activity at 10 µM came out at 202%. In addition, the activity at 30 µM in assay [1] (setting [5]) came out at 144%. This compound also showed a 50% effective concentration (EC50) in assay [1] (setting [4]) of 2160 nM. In addition, the “% Prolif (Alamar)” value in assay [2] came to 92 ± 33%.
`CCCNc1ncc(C(N)=O)c(NC2CCCC2)n1` [NSI-137]: the activity at 30 µM in assay [1] (setting [3]) came out at 145%; in assay [1] (setting [5]) it was 126%. Also, the EC50 in assay [1] (setting [4]) is more than 1000 nM. Further, in assay [2], the “% Prolif (Alamar)” value turned out to be 108 ± 28%.
Regarding `O=C(c1cccnc1N1CCNCC1)N1CCN(Cc2ccncc2)CC1` [NSI-142], the values for the activity at 30 µM in assay [1] (setting [3]) and in assay [1] (setting [5]) were 175% and 123%, respectively. In assay [1] (setting [4]), the EC50 amounted to 0.001 nM. The “% Prolif (Alamar)” value in assay [2] is listed as 115 ± 13%.
On the same counts, the results for `O=C(NC1CCN(Cc2ccccc2)CC1)c1cccnc1N1CCNCC1` [NSI-143] are 115%, 112%, 4.8 nM and 97 ± 16%.
Consider `NC(=O)c1cnc(NCc2ccc(Cl)cc2)nc1NCC1CCCCC1` [NSI-144], for which the results for the activity at 0.3 µM in assay [1] (setting [3]) and in assay [1] (setting [5]) were 186% and 138%, respectively. Further, in assay [1] (setting [4]), the EC50 came to 13.5 nM. For the same compound, the “% Prolif (Alamar)” value in assay [2] worked out at 149 ± 15%.
Take `CCCCNc1c(C2CCN(C(=O)c3ccc(C#N)cc3)CC2)nc2ccccn12` [NSI-149]: the activity at 1 µM in assay [1] (setting [3]) stood at 124%; in assay [1] (setting [5]) it was 111%. In assay [1] (setting [4]), this compound came in with a concentration giving a half-maximal response (EC50) of less than 0.1 nM. For the same compound, the “% Prolif (Alamar)” value in assay [2] came to 216 ± 28%.
For the compound `C=CCNC(=O)c1cccnc1NCc1ccccc1OC` [NSI-150], the activity at 3 µM in assay [1] (setting [3]) stood at 227%. The activity at 30 µM in assay [1] (setting [5]) worked out at 112%. The midpoint of the response in assay [1] (setting [4]), the EC50, lay at 85 nM. Also, in assay [2], the “% Prolif (Alamar)” value is 177 ± 44%.
`CC(C)(C)OC(=O)NCCNC(=O)c1cccnc1NCC1CCCCC1` [NSI-157]: the activity at 10 µM in assay [1] (setting [3]) worked out at 113%. In addition, the activity at 30 µM in assay [1] (setting [5]) came to 146%. In assay [1] (setting [4]), this compound returned an EC50 of more than 1000 nM. In addition, the “% Prolif (Alamar)” value in assay [2] stood at 218 ± 140%.
For `NC(=O)C1CCCN1C(=O)c1cccnc1NCC1CCCCC1` (centres unmarked) [NSI-158], the activity at 0.3 µM in assay [1] (setting [3]) was found to be 145%. In addition, the activity at 3 µM in assay [1] (setting [5]) amounted to 106%. This compound also gave a concentration for a half-maximal effect (EC50) in assay [1] (setting [4]) of 0.2 nM. Moreover, the “% Prolif (Alamar)” value in assay [2] is recorded as 236 ± 79%.
On to `O=C(NCc1nc2ccccn2c1NCC1CCCO1)Oc1ccccc1` (centres unmarked) [NSI-182], for which, in assay [1] (setting [3]), the activity at 0.3 µM came to 123%. The activity at 10 µM in assay [1] (setting [5]) was found to be 112%. This compound showed a half-maximal effective concentration (EC50) in assay [1] (setting [4]) of 0.1 nM. In addition, the “% Prolif (Alamar)” value in assay [2] is reported as 74 ± 8%.
For the compound `O=C(COc1ccccc1)NCc1nc2ccccn2c1NCC1CCCO1` (centres unmarked) [NSI-183], the activity at 0.001 µM in assay [1] (setting [5]) amounted to 112%. Further, the activity at 0.3 µM in assay [1] (setting [3]) is 140%. Also, the EC50 in assay [1] (setting [4]) was determined as 0.05 nM. In assay [1] (seven days, 100 pM to 100 μM), the “% Neuron Ratio EC50” value is on record as “No Curve”. Also, the “% Prolif (Alamar)” value in assay [2] is 69 ± 18%.
On to `CS(=O)(=O)N(CC(=O)NCc1nc2ccccn2c1NCc1ccccc1)c1ccccc1` [NSI-185], for which, in assay [1] (setting [3]), the activity at 3 µM came out at 132%. The activity at 30 µM in assay [1] (setting [5]) is 112%. In assay [1] (setting [4]), this compound returned an EC50 of 786 nM. In assay [2], the “% Prolif (Alamar)” value came out at 73 ± 26%.
For the compound `CC(C)CCNc1ncccc1C(=O)N1CCN(Cc2ccccc2)CC1` [NSI-189], the activity at 30 µM in assay [1] (setting [3]) was determined as 165%; in assay [1] (setting [5]) it was 141%. This compound also registered an EC50 in assay [1] (setting [4]) of 253 nM. The “% Prolif (Alamar)” value in assay [2] stood at 70 ± 21%.
For the compound `CCN(CCNC(=O)c1cccnc1NCCC(C)C)Cc1cccnc1` [NSI-190], the activity at 0.001 µM in assay [1] (setting [5]) is 128%. Besides, the activity at 0.3 µM in assay [1] (setting [3]) was determined as 165%. In assay [1] (setting [4]), this compound gave an EC50 of 13 nM. Besides, the “% Prolif (Alamar)” value in assay [2] is reported as 76 ± 14%.

As a reminder, the EC50 is the concentration giving half of the maximal effect. A high value points to lower potency in that assay.
